{"source": "patent US20140343000A1", "about": "(priority 2011, published 2014)"}
{"test_system": "recombinant NL4-3 virus (Renilla luciferase in nef, Gag P373S; NLRluc) in MT-2 cells", "assay": "whole plant or invertebrate", "format": "cell-based, HIV", "settings": "Renilla, NL43, luciferase activity in cells infected for 4-5 days with NLRluc recombinants, serial dilutions of inhibitor; class symbols (key in Table 1); read-out: EC50", "experimental": "(§1) MT-2 cells and 293T cells were obtained from the NIH AIDS Research and Reference Reagent Program. MT-2 cells were propagated in RPMI 1640 media supplemented with 10% heat inactivated fetal bovine serum, […]. The 293T cells were propagated in DMEM media supplemented with 10% heat inactivated fetal bovine serum (FBS), 100 units/ml penicillin G and 100 μg/ml streptomycin. The proviral DNA clone of NL4-3 was obtained from the NIH AIDS Research and Reference Reagent Program. A recombinant NL4-3 virus, in which a section of the nef gene from NL4-3 was replaced with the Renilla luciferase gene, was used as a reference virus. In addition, residue Gag P373 was converted to P373S. Briefly, the recombinant virus was prepared by transfection of the altered proviral clone of NL4-3. Transfections were performed in 293T cells using LipofectAMINE PLUS from Invitrogen (Carlsbad, Calif.), according to manufacturer's instruction. The virus was titered in MT-2 cells using luciferase enzyme activity as a marker. Luciferase was quantitated using the Dual Luciferase kit from Promega (Madison, Wis.), with modifications to the manufacturer's protocol. The diluted Passive Lysis solution was pre-mixed with the re-suspended Luciferase Assay Reagent and the re-suspended Stop & Glo Substrate (2:1:1 ratio). Fifty (50) μL of the mixture was added to each aspirated well on assay plates and luciferase activity was measured immediately on a Wallac TriLux (Perkin-Elmer). Antiviral activities of inhibitors toward the recombinant virus were quantified by measuring luciferase activity in cells infected for 4-5 days with NLRluc recombinants in the presence serial dilutions of the inhibitor. Table 1 is the key for the data in Table 2.", "units": {"EC50": "nM"}}
{"compound": "C=C(C)[C@@H]1CC[C@]2(NCCNc3ccncc3)CC[C@]3(C)[C@H](CC[C@@H]4[C@@]5(C)CC=C(c6ccc(C(=O)O)cc6)C(C)(C)[C@@H]5CC[C@]43C)[C@@H]12", "note": "[Example 190, 4-((1R,3aS,5aR,5bR,7aR,11aS,11bR,13aR,13bR)-5a,5b,8,8,11a-pentamethyl-1-(prop-1-en-2-yl)-3a-(2-(pyridin-4-ylamino)ethylamino)-2,3,3a,4,5,5a,5b,6,7,7a,8,11,11a,11b,12,13,13a,13b-octadecahydro-1H-cyclopenta[a]chrysen-9-yl)benzoic acid]", "EC50": "< 100"}
{"compound": "C=C(C)[C@@H]1CC[C@]2(NC(=O)NC3(C(=O)O)CC3)CC[C@]3(C)[C@H](CC[C@@H]4[C@@]5(C)CC=C(c6ccc(C(=O)O)cc6)C(C)(C)[C@@H]5CC[C@]43C)[C@@H]12", "note": "[Example 4, 4-((1R,3aS,5aR,5bR,7aR,11aS,11bR,13aR,13bR)-3a-(3-(1-carboxycyclopropyl)ureido)-5a,5b,8,8,11a-pentamethyl-1-(prop-1-en-2-yl)-2,3,3a,4,5,5a,5b,6,7,7a,8,11,11a,11b,12,13,13a,13b-octadecahydro-1H-cyclopenta[a]chrysen-9-yl)benzoic acid]", "EC50": "> 100"}
{"compound": "C=C(C)[C@@H]1CC[C@]2(NCCNc3ccccc3)CC[C@]3(C)[C@H](CC[C@@H]4[C@@]5(C)CC=C(c6ccc(C(=O)O)cc6)C(C)(C)[C@@H]5CC[C@]43C)[C@@H]12", "note": "[Example 192, 4-((1R,3aS,5aR,5bR,7aR,11aS,11bR,13aR,13bR)-5a,5b,8,8,11a-pentamethyl-3a-(2-(phenylamino)ethylamino)-1-(prop-1-en-2-yl)-2,3,3a,4,5,5a,5b,6,7,7a,8,11,11a,11b,12,13,13a,13b-octadecahydro-1H-cyclopenta[a]chrysen-9-yl)benzoic acid]", "EC50": "< 100"}
{"compound": "C=C(C)[C@@H]1CC[C@]2(NCCO)CC[C@]3(C)[C@H](CC[C@@H]4[C@@]5(C)CC=C(c6ccc(C(=O)O)cc6)C(C)(C)[C@@H]5CC[C@]43C)[C@@H]12", "note": "[Example 151, 4-((1R,3aS,5aR,5bR,7aR,11aS,11bR,13aR,13bR)-3a-(2-hydroxyethylamino)-5a,5b,8,8,11a-pentamethyl-1-(prop-1-en-2-yl)-2,3,3a,4,5,5a,5b,6,7,7a,8,11,11a,11b,12,13,13a,13b-octadecahydro-1H-cyclopenta[a]chrysen-9-yl)benzoic acid]", "EC50": "< 100"}
{"compound": "C=C(C)[C@@H]1CC[C@]2(NCCN3CCN(C(=O)CC(C)C)CC3)CC[C@]3(C)[C@H](CC[C@@H]4[C@@]5(C)CC=C(c6ccc(C(=O)O)cc6)C(C)(C)[C@@H]5CC[C@]43C)[C@@H]12", "note": "[Example B59, 4-((1R,3aS,5aR,5bR,7aR,11aS,11bR,13aR,13bR)-5a,5b,8,8,11a-pentamethyl-3a-((2-(4-(3-methylbutanoyl)piperazin-1-yl)ethyl)amino)-1-(prop-1-en-2-yl)-2,3,3a,4,5,5a,5b,6,7,7a,8,11,11a,11b,12,13,13a,13b-octadecahydro-1H-cyclopenta[a]chrysen-9-yl)benzoic acid]", "EC50": "< 100"}
{"compound": "C=C(C)[C@@H]1CC[C@]2(NC(=O)CN3CCCCC3C)CC[C@]3(C)[C@H](CC[C@@H]4[C@@]5(C)CC=C(c6ccc(C(=O)O)cc6)C(C)(C)[C@@H]5CC[C@]43C)[C@@H]12", "note": "(stereo partly drawn) [Example 124, 4-((1R,3aS,5aR,5bR,7aR,11aS,11bR,13aR,13bR)-5a,5b,8,8,11a-pentamethyl-3a-(2-(2-methylpiperidin-1-yl)acetamido)-1-(prop-1-en-2-yl)-2,3,3a,4,5,5a,5b,6,7,7a,8,11,11a,11b,12,13,13a,13b-octadecahydro-1H-cyclopenta[a]chrysen-9-yl)benzoic acid]", "EC50": "< 100"}
{"compound": "C=C(C)[C@@H]1CC[C@]2(NC(=O)Cc3cccnc3)CC[C@]3(C)[C@H](CC[C@@H]4[C@@]5(C)CC=C(c6ccc(C(=O)O)cc6)C(C)(C)[C@@H]5CC[C@]43C)[C@@H]12", "note": "[Example 120, benzoic acid, 4-[(1R,3aS,5aR,5bR,7aR,11aS,11bR,13aR,13bR)-2,3,3a,4,5,5a,5b,6,7,7a,8,11,11a,11b,12,13,13a,13b-octadecahydro-5a,5b,8,8,11a-pentamethyl-1-(1-methylethenyl)-3a-[(3-pyridinylacetyl)amino]-1H-cyclopenta[a]chrysen-9-yl]]", "EC50": "< 100"}
{"compound": "C=C(C)[C@@H]1CC[C@]2(NCCNC(=O)OC(C)(C)C)CC[C@]3(C)[C@H](CC[C@@H]4[C@@]5(C)CC=C(c6ccc(C(=O)O)cc6)C(C)(C)[C@@H]5CC[C@]43C)[C@@H]12", "note": "[Example 138, 4-((1R,3aS,5aR,5bR,7aR,11aS,11bR,13aR,13bR)-3a-(2-(tert-butoxycarbonylamino)ethylamino)-5a,5b,8,8,11a-pentamethyl-1-(prop-1-en-2-yl)-2,3,3a,4,5,5a,5b,6,7,7a,8,11,11a,11b,12,13,13a,13b-octadecahydro-1H-cyclopenta[a]chrysen-9-yl)benzoic acid]", "EC50": "< 100"}
{"compound": "CC(C)[C@@H]1CC[C@]2(NCCN(C)C)CC[C@]3(C)[C@H](CC[C@@H]4[C@@]5(C)CC[C@H](c6ccc(C(=O)O)cc6)C(C)(C)[C@@H]5CC[C@]43C)[C@@H]12", "note": "[Example B5, 4-((1S,3aS,5aR,5bR,7aS,9S,11aS,11bR,13aR,13bR)-3a-((2-(dimethylamino)ethyl)amino)-1-isopropyl-5a,5b,8,8,11a-pentamethylicosahydro-1H-cyclopenta[a]chrysen-9-yl)benzoic acid]", "EC50": "< 100"}
{"compound": "C=C(C)[C@@H]1CC[C@]2(NCCN3CCCCS3(=O)=O)CC[C@]3(C)[C@H](CC[C@@H]4[C@@]5(C)CC=C(c6ccc(C(=O)O)cc6)C(C)(C)[C@@H]5CC[C@]43C)[C@@H]12", "note": "[Example B32, 4-((1R,3aS,5aR,5bR,7aR,11aS,11bR,13aR,13bR)-3a-((2-(1,1-dioxido-1,2-thiazinan-2-yl)ethyl)amino)-5a,5b,8,8,11a-pentamethyl-1-(prop-1-en-2-yl)-2,3,3a,4,5,5a,5b,6,7,7a,8,11,11a,11b,12,13,13a,13b-octadecahydro-1H-cyclopenta[a]chrysen-9-yl)benzoic acid]", "EC50": "< 100"}
{"compound": "C=C(C)[C@@H]1CC[C@]2(NC(=O)N3CCN(C(C)=O)CC3)CC[C@]3(C)[C@H](CC[C@@H]4[C@@]5(C)CC=C(c6ccc(C(=O)O)cc6)C(C)(C)[C@@H]5CC[C@]43C)[C@@H]12", "note": "[Example 41, 4-((1R,3aS,5aR,5bR,7aR,11aS,11bR,13aR,13bR)-3a-(4-acetylpiperazine-1-carboxamido)-5a,5b,8,8,11a-pentamethyl-1-(prop-1-en-2-yl)-2,3,3a,4,5,5a,5b,6,7,7a,8,11,11a,11b,12,13,13a,13b-octadecahydro-1H-cyclopenta[a]chrysen-9-yl)benzoic acid]", "EC50": "< 100"}
{"test_system": "recombinant NL4-3 virus (Renilla luciferase in nef, Gag P373S; NLRluc) in MT-2 cells", "assay": "whole plant or invertebrate", "format": "cell-based, HIV", "settings": "Renilla, NL43, luciferase activity in cells infected for 4-5 days with NLRluc recombinants, serial dilutions of inhibitor; numeric values; read-out: EC50", "experimental": "as §1", "units": {"EC50": "nM"}}
{"compound": "C=C(C)[C@@H]1CC[C@]2(NC(=O)N3CCN([C@@H]4COC[C@H]4N(C)C)CC3)CC[C@]3(C)[C@H](CC[C@@H]4[C@@]5(C)CC=C(c6ccc(C(=O)O)cc6)C(C)(C)[C@@H]5CC[C@]43C)[C@@H]12", "note": "[Example 9, 4-((1R,3aS,5aR,5bR,7aR,11aS,11bR,13aR,13bR)-3a-(4-((3S,4S)-4-(dimethylamino)tetrahydrofuran-3-yl)piperazine-1-carboxamido)-5a,5b,8,8,11a-pentamethyl-1-(prop-1-en-2-yl)-2,3,3a,4,5,5a,5b,6,7,7a,8,11,11a,11b,12,13,13a,13b-octadecahydro-1H-cyclopenta[a]chrysen-9-yl)benzoic acid]", "EC50": 3}
{"compound": "C=C(C)[C@@H]1CC[C@]2(N(C)C)CC[C@]3(C)[C@H](CC[C@@H]4[C@@]5(C)CC=C(c6ccc(C(=O)O)cc6)C(C)(C)[C@@H]5CC[C@]43C)[C@@H]12", "note": "[Example 177, 4-((1R,3aS,5aR,5bR,7aR,11aS,11bR,13aR,13bR)-3a-(dimethylamino)-5a,5b,8,8,11a-pentamethyl-1-(prop-1-en-2-yl)-2,3,3a,4,5,5a,5b,6,7,7a,8,11,11a,11b,12,13,13a,13b-octadecahydro-1H-cyclopenta[a]chrysen-9-yl)benzoic acid]", "EC50": 9}
{"compound": "C=C(C)[C@@H]1CC[C@]2(NC(=O)NCCN3CCCC3=O)CC[C@]3(C)[C@H](CC[C@@H]4[C@@]5(C)CC=C(c6ccc(C(=O)O)cc6)C(C)(C)[C@@H]5CC[C@]43C)[C@@H]12", "note": "[Example 28, 4-((1R,3aS,5aR,5bR,7aR,11aS,11bR,13aR,13bR)-5a,5b,8,8,11a-pentamethyl-3a-(3-(2-(2-oxopyrrolidin-1-yl)ethyl)ureido)-1-(prop-1-en-2-yl)-2,3,3a,4,5,5a,5b,6,7,7a,8,11,11a,11b,12,13,13a,13b-octadecahydro-1H-cyclopenta[a]chrysen-9-yl)benzoic acid]", "EC50": 4}
{"test_system": "recombinant NL4-3 virus (Renilla luciferase in nef, Gag P373S; NLRluc) in MT-2 cells", "assay": "whole plant or invertebrate", "format": "cell-based, HIV", "settings": "luciferase activity in cells infected for 4-5 days with NLRluc recombinants, serial dilutions of inhibitor; class symbols (key in Table 1); read-out: EC50", "experimental": "as §1", "units": {"EC50": "nM"}}
{"compound": "C=C(C)[C@@H]1CC[C@]2(NC(=O)C(C(C)C)N3CCS(=O)(=O)CC3)CC[C@]3(C)[C@H](CC[C@@H]4[C@@]5(C)CC=C(c6ccc(C(=O)O)cc6)C(C)(C)[C@@H]5CC[C@]43C)[C@@H]12", "note": "(single isomer, unassigned) [Example 111]", "EC50": "< 100"}
